Data from paper PMC9993459, “A novel selective spleen tyrosine kinase inhibitor SKI-O-703 (cevidoplenib) ameliorates lupus nephritis and serum-induced arthritis in murine models” (Clinical and Experimental Immunology, 2022).
pIC50: −log10 of the molar value. Entries after “also recorded” stand apart in the source; their conditions may differ.

Assays:
[1] = Aqueous solubility; format: physicochemical; details: aqueous solution
[2] = test system: mouse primary B cells; assay: CP670-dilution proliferation assay, LPS-stimulated B cells; format: cell-based; details: 72 h
Procedure: (§1) Splenic CD19^+ B cells from C57BL/6 mice were sorted by MACS (Milteny Biotec), stained with 3 μM cell proliferation dye eFluor 670 (CP670; eBioscience), and cultured for 72 h in the presence of either 10 μg/ml LPS (Sigma Aldrich) or 5 μg/ml anti-mouse IgM (Jackson Immuno Research Laboratories), 10 μg/ml anti-CD40 mAb (Biolegend) and 10 ng/ml IL-4 (Peprotech), and assayed by FACS. To detect apoptotic cells, unstimulated cells were cultured for 24 h, stained with Annexin V and 7-aminoactinomycin D (7-AAD), and assayed by FACS.
(§2) Figure 2: in vitro effects of SKI-O -703 on the proliferation, survival, and differentiation of B cells. Mouse primary B cells were labeled with CP670, and stimulated with either anti-IgM mAb, CD40L and IL-4 (A) or LPS (B) for 72 h in the presence or absence of SKI-O-703 and tofacitinib at the indicated concentrations; they were then assayed by FACS. (C and D) Mouse primary B cells were cultured as in A and B for 24 h, stained with Annexin V and 7-AAD, and assayed by FACS. Representative FACS profiles and graphs displaying mean Annexin V-positivity are shown. (E) Human primary B cells were stimulated with CpG ODN plus IL-2 (to detect IgM and IgG) or CpG ODN 2006 plus IFN-α (to detect IL-6) in the presence or absence of inhibitors. The culture supernatants were assayed by ELISA. Graphs are expressed as % positivity relative to the controls (without inhibitor). […]

[3] = test system: mouse primary B cells; assay: CP670-dilution proliferation assay, BCR crosslinking (anti-IgM) stimulated B cells; format: cell-based; details: 0.1–5 μM, CP670 dilution, 72 h
Procedure: as §1, §2

[4] = test system: mouse primary B cells; assay: Annexin V/7-AAD apoptosis assay in B cells; format: cell-based; details: 24 h, effect more potent with anti-IgM than LPS
Procedure: as §1, §2

[5] = target: Jak3 (Homo sapiens, UniProt P52333); assay: Kinase assay (LANCE Ultra TR-FRET), Jak3; format: biochemical
Procedure: (§3) Kinase assays were conducted in 384-well plates using LANCE ultra 66 time-resolved fluorescence resonance energy transfer (TR-FRET) methods, according to the manufacturer’s instructions (Perkin-Elmer). In brief, each kinase was pre-incubated with a serially diluted compound for 30 min, incubated with ULight poly-GT peptide substrate and ATP for up to 1 h. Thirty minutes after adding Eu-labeled anti-phosphopeptides Ab diluted in LANCE Detection Buffer, LANCE signals were measured with an EnVision multilabel reader (Perkin-Elmer).

[6] = target: AuroraB (Homo sapiens, UniProt Q96GD4); assay: Kinase assay (LANCE Ultra TR-FRET), AuroraB; format: biochemical
Procedure: as §3

[7] = test system: human primary B cells; assay: IgM, IgG and IL-6 secretion by stimulated human primary B cells (ELISA); format: cell-based; details: TLR9 agonist plus IL-2 or IFN-α; efficacy comparable to R406
Procedure: Human CD19^+ B cells (Lonza) were pre-treated with inhibitors for 1 h and stimulated for 24 h with 50 nM CpG ODN 2006 plus 10 ng/ml IL-2 or 1 μM CpG ODN 2006 plus 20 ng/ml IFN-α. Culture supernatants were assayed by ELISA to detect secreted IgG, IgM, and IL-6, according to the manufacturer’s instructions.
Figure 2: in vitro effects of SKI-O -703 on the proliferation, survival, and differentiation of B cells. Mouse primary B cells were labeled with CP670, and stimulated with either anti-IgM mAb, CD40L and IL-4 (A) or LPS (B) for 72 h in the presence or absence of SKI-O-703 and tofacitinib at the indicated concentrations; they were then assayed by FACS. (C and D) Mouse primary B cells were cultured as in A and B for 24 h, stained with Annexin V and 7-AAD, and assayed by FACS. Representative FACS profiles and graphs displaying mean Annexin V-positivity are shown. (E) Human primary B cells were stimulated with CpG ODN plus IL-2 (to detect IgM and IgG) or CpG ODN 2006 plus IFN-α (to detect IL-6) in the presence or absence of inhibitors. The culture supernatants were assayed by ELISA. Graphs are expressed as % positivity relative to the controls (without inhibitor). The data are representative of 2–3 independent experiments. *P < 0.05, **P < 0.01, and ***P < 0.001, compared with vehicle control by two-tailed unpaired Students t-tests.

[8] = test system: Syk phosphorylation (Y525/526), BLNK, PLCγ1, Vav1; assay: Immunoblotting of phosphorylated Syk and downstream molecules in Ramos cells, human primary monocytes and THP-1 cells; format: cell-based; details: all three cell lines, dose-dependent, more potent than R406
Procedure: THP-1 and Ramos cell lines and human CD14^+ monocytes were purchased from the American Type Culture Collection (ATCC) and Lonza, respectively. After treatment with Syk inhibitors for 1 h, THP-1 cells and monocytes were stimulated for 15 min with 100 μg/ml human IgG (Invitrogen), and Ramos cells were stimulated with 2 μg/ml anti-human IgM monoclonal Ab (mAb) (Bathyl). Cells were lysed in RIPA buffer containing 1% NP-40, 1% sodium deoxycholate, 0.1% SDS, and a mixture of protease and phosphatase inhibitors (Thermo Scientific). The lysates were assayed by standard immunoblotting methods and ELISA. Primary Abs used for immunoblotting were anti-phospho-Syk ([…]), anti-phospho-Vav (Y174), anti-phospho-PLCγ1 (Y1217) and anti-phospho-BLNK (Y96) Abs (all from Cell Signaling). ELISAs to detect phospho-Syk (Y525/526) were performed according to the manufacturer’s protocol (Cell Signaling).
Figure 1: in vitro inhibitory effects of SKI-O-592 and -703 on Syk in B cells and monocytes. […] The relative intensities of protein phosphorylation levels were quantitated with reference to each lane of β-actin control bands. (D) Ramos cells, human primary monocytes, and THP cells were treated as in A–C for 24 h and levels of phosphorylated Syk (p-Syk) were measured by ELISA. […] A representative FACS profile and data on the dose-response of mean fluorescence intensity (MFI) are shown. […]

[9] = target: FLT3 (Homo sapiens, UniProt P36888); assay: Kinase assay (LANCE Ultra TR-FRET), FLT3; format: biochemical
Procedure: as §3

[10] = target: T1, Zap70 (Homo sapiens, UniProt P43403); assay: Immunoblotting of Zap70 phosphorylation in TCR-stimulated T cells; format: cell-based; details: 0.3–10 μM
T1 construct: endogenous in cells; host or cells: human peripheral T cells sorted from PBMC, stimulated with anti-CD3 and anti-CD28
Procedure: (A) The stru cture of SKI-O-703. (B-D) Human per ipheral T cells sorted fro m human peripheral blood mononuclear cells (B and D) and mouse primary T cells sorted from spleen (C ) wer e stimulated with 5 µ g/ml anti- CD3 and 2 µ g/ml anti- CD28 m Abs in the presence or absence of inhibitors as indicated. Af ter one hour (B) and 24 h ours (C and D) of culture, cells we re assaye d
by immunoblotting (B), FA C S ( C), and ELISA (D).
of Zap70 and its downstream target PLCγ1. It’s effect on the suppression of IL-2 production

[11] = target: FGFR3 (Homo sapiens, UniProt P22607); assay: Kinase assay (LANCE Ultra TR-FRET), FGFR3; format: biochemical
Procedure: as §3

[12] = target: FGFR1 (Homo sapiens, UniProt P11362); assay: Kinase assay (LANCE Ultra TR-FRET), FGFR1; format: biochemical
Procedure: as §3

T1 sequence (P43403 whole entry): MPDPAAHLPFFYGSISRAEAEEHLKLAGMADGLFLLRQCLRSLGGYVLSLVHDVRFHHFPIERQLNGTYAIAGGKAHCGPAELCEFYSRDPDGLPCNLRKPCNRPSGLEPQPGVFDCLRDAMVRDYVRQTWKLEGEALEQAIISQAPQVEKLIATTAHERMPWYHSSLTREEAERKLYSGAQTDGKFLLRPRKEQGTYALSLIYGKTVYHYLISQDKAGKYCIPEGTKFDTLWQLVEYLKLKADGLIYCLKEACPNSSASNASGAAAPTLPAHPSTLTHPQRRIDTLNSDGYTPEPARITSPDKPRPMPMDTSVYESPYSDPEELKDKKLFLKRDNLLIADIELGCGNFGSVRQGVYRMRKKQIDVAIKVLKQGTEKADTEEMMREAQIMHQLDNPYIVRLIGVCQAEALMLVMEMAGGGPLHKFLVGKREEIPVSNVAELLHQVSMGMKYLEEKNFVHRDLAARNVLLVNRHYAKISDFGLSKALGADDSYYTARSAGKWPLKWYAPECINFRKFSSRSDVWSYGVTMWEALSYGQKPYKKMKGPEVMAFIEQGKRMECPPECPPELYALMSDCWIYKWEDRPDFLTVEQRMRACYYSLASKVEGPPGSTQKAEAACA
Sequence of AuroraB (Q96GD4 whole entry): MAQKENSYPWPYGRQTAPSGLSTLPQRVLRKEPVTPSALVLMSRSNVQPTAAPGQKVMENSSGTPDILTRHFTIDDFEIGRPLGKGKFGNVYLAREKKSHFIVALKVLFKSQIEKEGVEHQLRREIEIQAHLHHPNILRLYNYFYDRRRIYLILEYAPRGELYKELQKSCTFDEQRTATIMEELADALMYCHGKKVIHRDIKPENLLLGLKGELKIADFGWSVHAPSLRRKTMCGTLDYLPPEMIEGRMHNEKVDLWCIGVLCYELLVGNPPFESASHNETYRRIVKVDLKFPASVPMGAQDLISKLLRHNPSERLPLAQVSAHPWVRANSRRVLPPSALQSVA
Sequence of Jak3 (P52333 whole entry, species assumed): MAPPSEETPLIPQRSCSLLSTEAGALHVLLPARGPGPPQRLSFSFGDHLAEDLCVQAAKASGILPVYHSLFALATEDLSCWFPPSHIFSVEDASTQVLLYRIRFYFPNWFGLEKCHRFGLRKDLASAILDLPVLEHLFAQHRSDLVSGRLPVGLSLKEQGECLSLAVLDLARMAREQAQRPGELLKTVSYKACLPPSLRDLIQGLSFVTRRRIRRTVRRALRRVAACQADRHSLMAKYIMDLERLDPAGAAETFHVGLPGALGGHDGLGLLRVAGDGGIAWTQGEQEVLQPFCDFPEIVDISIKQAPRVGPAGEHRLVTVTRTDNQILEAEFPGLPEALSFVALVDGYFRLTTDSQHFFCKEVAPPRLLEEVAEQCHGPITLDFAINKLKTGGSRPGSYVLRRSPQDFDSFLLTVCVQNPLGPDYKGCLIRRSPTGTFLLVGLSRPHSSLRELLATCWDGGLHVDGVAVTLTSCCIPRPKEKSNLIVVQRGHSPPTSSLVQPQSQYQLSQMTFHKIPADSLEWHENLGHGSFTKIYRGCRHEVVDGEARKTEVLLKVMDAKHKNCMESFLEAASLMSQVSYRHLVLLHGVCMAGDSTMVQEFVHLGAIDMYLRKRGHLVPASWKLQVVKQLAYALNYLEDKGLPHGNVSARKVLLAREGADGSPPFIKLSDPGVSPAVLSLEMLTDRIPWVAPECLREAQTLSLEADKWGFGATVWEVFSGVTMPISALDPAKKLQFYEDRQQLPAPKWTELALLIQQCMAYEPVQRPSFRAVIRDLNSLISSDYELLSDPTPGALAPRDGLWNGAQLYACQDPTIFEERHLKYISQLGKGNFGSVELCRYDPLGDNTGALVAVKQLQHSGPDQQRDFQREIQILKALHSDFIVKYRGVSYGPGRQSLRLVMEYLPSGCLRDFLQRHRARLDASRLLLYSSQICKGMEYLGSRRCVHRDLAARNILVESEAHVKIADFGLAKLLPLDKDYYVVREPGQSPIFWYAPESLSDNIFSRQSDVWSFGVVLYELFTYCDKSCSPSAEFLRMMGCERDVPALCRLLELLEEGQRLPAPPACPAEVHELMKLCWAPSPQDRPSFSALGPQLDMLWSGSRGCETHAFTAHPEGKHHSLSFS
Sequence of FLT3 (P36888 27-993, species assumed): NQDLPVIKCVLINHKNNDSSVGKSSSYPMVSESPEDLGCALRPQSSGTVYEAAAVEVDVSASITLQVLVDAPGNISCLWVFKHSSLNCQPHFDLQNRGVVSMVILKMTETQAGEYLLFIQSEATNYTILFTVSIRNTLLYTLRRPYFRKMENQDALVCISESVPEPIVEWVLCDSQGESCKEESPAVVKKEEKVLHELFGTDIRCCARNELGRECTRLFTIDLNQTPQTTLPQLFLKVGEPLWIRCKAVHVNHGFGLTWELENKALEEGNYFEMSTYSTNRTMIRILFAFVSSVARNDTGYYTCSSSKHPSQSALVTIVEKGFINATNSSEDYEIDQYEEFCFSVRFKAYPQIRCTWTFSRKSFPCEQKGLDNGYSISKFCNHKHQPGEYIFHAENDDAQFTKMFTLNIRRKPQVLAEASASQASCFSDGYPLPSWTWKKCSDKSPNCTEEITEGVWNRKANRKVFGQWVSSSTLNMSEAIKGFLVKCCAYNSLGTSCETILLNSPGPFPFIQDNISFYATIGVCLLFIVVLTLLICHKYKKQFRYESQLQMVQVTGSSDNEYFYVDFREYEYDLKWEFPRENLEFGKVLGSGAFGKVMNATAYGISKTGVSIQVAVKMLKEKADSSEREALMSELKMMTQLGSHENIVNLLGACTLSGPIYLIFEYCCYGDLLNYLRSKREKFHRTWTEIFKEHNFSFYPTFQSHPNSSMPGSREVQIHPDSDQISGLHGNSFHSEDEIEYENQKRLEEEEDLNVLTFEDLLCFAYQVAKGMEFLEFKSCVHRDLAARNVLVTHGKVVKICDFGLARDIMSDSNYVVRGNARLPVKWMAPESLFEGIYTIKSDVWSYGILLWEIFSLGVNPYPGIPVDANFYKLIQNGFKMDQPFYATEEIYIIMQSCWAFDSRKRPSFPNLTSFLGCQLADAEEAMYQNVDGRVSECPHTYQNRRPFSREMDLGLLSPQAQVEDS
Sequence of FGFR3 (P22607 23-806, species assumed): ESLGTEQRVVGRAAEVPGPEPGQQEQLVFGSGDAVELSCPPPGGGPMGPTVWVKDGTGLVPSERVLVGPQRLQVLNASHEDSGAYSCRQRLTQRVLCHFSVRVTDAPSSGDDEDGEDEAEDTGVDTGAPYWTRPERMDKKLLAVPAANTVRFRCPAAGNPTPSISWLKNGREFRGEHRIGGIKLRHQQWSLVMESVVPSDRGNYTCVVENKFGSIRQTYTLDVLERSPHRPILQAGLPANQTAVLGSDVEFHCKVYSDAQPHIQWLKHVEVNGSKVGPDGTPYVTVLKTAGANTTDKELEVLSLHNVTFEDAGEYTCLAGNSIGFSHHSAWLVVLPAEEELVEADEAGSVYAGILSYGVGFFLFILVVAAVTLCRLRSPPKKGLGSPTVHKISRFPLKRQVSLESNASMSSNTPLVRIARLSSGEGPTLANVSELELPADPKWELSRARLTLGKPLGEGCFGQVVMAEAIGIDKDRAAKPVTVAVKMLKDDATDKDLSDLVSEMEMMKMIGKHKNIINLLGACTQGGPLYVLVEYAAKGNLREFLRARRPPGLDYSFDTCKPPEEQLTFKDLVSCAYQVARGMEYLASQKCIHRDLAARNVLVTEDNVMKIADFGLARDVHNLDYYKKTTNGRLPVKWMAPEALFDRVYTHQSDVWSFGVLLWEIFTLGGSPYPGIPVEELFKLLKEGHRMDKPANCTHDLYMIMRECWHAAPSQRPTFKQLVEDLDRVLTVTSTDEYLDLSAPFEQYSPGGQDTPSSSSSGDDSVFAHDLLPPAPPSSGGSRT
Sequence of FGFR1 (P11362 22-822, species assumed): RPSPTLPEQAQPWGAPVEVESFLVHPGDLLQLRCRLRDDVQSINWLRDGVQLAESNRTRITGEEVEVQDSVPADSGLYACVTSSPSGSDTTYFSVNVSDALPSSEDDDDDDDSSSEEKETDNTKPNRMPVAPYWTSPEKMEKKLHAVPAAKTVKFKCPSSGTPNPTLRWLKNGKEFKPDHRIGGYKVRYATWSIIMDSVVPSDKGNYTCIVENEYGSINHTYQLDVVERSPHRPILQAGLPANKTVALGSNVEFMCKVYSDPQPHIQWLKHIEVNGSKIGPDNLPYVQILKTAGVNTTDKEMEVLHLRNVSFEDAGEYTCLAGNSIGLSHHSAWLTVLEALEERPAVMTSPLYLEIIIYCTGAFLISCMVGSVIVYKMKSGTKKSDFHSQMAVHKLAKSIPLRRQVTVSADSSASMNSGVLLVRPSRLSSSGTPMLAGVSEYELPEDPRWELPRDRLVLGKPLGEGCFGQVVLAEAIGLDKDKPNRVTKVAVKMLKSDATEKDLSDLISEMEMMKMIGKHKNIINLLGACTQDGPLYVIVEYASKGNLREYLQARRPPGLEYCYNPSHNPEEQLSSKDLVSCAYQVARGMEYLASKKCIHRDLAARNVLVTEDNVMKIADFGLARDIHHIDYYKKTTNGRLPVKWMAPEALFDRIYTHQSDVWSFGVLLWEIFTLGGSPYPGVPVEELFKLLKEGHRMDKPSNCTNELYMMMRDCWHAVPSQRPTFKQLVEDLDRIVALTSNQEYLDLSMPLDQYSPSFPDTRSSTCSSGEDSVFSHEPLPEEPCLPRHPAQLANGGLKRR

SMILES: CS(=O)(=O)O.CS(=O)(=O)O.Cc1nn(-c2ccnc(Nc3ccc4c(c3)c(C(=O)C3CC3)cn4C)n2)cc1CN1C[C@H](O)CO1 [SKI-O-703, (S)-cyclopropyl(5-((4-(4-((4-hydroxyisoxazolidin-2-yl)methyl)-3-methyl-1H-pyrazol-1-yl)pyrimidin-2-yl)amino)-1-methyl-1H-indol-3-yl)methanone dimesylate]
- Solubility [1]: soluble in aqueous solution
- Concentration required to significantly inhibit LPS-induced proliferation [2]: at least 5 μM
- BCR crosslinking-induced proliferation [3]: inhibited BCR crosslinking-induced proliferation in a concentration-dependent manner
- Proportions of early and late apoptotic B cells [4]: increased the proportions of early and late apoptotic cells

SMILES: Cc1nn(-c2ccnc(Nc3ccc4c(c3)c(C(=O)C3CC3)cn4C)n2)cc1CN1C[C@H](O)CO1 [SKI-O-592]
- Ratio to Syk (Jak3) ([5]; IC50 ratio to Syk): 943
- pIC50 ([5]; kinase activity, TR-FRET): 5.24
- Ratio to Syk (AuroraB) ([6]; IC50 ratio to Syk): >1623
- pIC50 ([6]; kinase activity, TR-FRET): < 5.00
- Production of IgM, IgG and IL-6 [7]: inhibited the production of IgM, IgG, and IL-6
- Phosphorylation of Syk Y525/526 and downstream BLNK, PLCγ1, Vav1 (immunoblotting) [8]: inhibited phosphorylation
- Ratio to Syk (FLT3) ([9]; IC50 ratio to Syk): 289
- pIC50 ([9]; kinase activity, TR-FRET): 5.75
- Phosphorylation of Zap70 and its downstream target PLCγ1 [10]: did not inhib it phosphorylation; also recorded: failed to affect
- Ratio to Syk (FGFR3) ([11]; IC50 ratio to Syk): 919
- pIC50 ([11]; kinase activity, TR-FRET): 5.25
- Ratio to Syk (FGFR1) ([12]; IC50 ratio to Syk): 2753
- pIC50 ([12]; kinase activity, TR-FRET): 4.77
